Entries after “also recorded” stand apart in the source; their conditions may differ.

Type in all cases: biochemical
The target of series [1] is T1, HNE-DNA complexes of NETs (Homo sapiens, UniProt P08246).
T1 construct: endogenous in cells
T1 sequence (P08246 30-247 limits assumed): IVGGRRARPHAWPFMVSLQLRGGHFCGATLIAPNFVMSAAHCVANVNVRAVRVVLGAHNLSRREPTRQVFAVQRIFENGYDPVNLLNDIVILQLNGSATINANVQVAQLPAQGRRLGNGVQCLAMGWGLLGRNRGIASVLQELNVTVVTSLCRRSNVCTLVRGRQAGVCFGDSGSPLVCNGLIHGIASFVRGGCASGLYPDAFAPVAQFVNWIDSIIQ
Nature of the series: Plasminogen fragmentation by NETs-bound elastase (SDS-PAGE, Western blot). The following applies: plasminogen 1 μM; NETs pre-incubated with inhibitor. The method, then:
FIGS. 2A-C represent NETs-associated elastase digests plasminogen into fragments. Samples were analyzed by SDS-PAGE and Western blot using a specific sheep antibody directed against human plasminogen. FIG. 2A-B. Plasminogen fragmentation by NETs HNE•DNA complexes after 30 to 240 min (A) and 2 to 10 hours (B) of incubation. C. Western blot of purified plasminogen (Pg), plasmin (Pn) (left panel) and HNE-DNA-derived plasminogen fragments (middle panel). Plasminogen fragments produced by PMA stimulated neutrophils (middle panel) were not observed (right panel) in the presence of the elastase-specific inhibitor (EI) N-Methoxysuccinyl-Ala-Ala-Pro-Val-chloromethyl ketone.
Fibrin-NETs matrices were achieved by activation with PMA of neutrophils seeded onto fibrin surfaces prepared as described above. The neutrophils were seeded onto the fibrin matrix at 200 000 cells per well and were stimulated with PMA after 1 h plating as indicated above. […] Initial velocities of the reaction were calculated using an ad hoc computer program. • 2. […] HNE activity in samples collected in HBSS was measured with the chromogenic substrate MeO-Suc-AAPV-pNA (100 μl per well, 1.5 mM final concentration in HBSS) as indicated above. […] Signal was detected using the ECL kit from Amersham (Arlington Heights, U.K.) and the Curix-60-AGFA for development. […]

The target in series [2] is T1, HNE-DNA complexes of NETs. The experiment in a line: Activity of DNA-bound elastase on NETs, chromogenic substrate MeO-Suc-AAPV-pNA. The following applies: NETs from PMA-stimulated neutrophils, MeO-Suc-AAPV-CMK 100 μM, α1-PI 10 μM, aprotinin 10 μM (FIG. 1B legend). Here is the method:
FIGS. 1A-C represent Neutrophil Extracellular Traps (NETs) generated from neutrophils seeded onto a fibrin matrix: DNA and HNE activity of NETs are shown. Neutrophils isolated from human blood and seeded on wells of a 96-wells microtiter plate containing or not a fibrin matrix, were activated by 50 nM PMA in HBSS. After 4 hours incubation at 37° C. in a humidified 5% CO2 incubator, the plate was centrifuged at 3000 g for 5 min, the supernatant was collected and cells and NETs in the well stained with a 10 μg/ml solution of Hoechst 33342 a minor-groove DNA binder. Elastase activity bound to NETs was detected with the chromogenic substrate N-methoxysuccinyl-Ala-Ala-Pro-Val-p-nitroanilide. FIG. 1A represents fluorescence microscopy images (X20) of nuclei and extracellular DNA fibers stained with Hoechst. Scale bars: 20 μm. […] NETs: neutrophil extracellular traps generated in the absence of fibrin. […] C. […] Purified HNE was incubated (15 min) at different concentrations in buffer or plasma before activity measurements with 1.5 mM of the chromogenic substrate N-methoxysuccinyl-Ala-Ala-Pro-Val-p-nitroanilide.
NETs were identified by (1) DNA staining with a 10 μg/ml solution of Hoechst 33342 and (2) measuring the activity of DNA-bound elastase.
To detect elastase bound to NETs, the substrate MeO-Suc-AAPV-pNA (100 μl per well, 1.5 mM final concentration in HBSS) was incubated with NETs after two gentle washes with HBSS. DNA-bound HNE activity was detected in a multi-well plate counter at 37° C. by measuring the release of p-nitroaniline (pNA) at A405 nm.

For series [3], the target named is T2, HNE-DNA complexes of fibrin-NETs lattice (Homo sapiens, UniProt P08246).
T2 construct: endogenous in cells
T2 sequence (P08246 30-247 limits assumed): T1 sequence (P08246 30-247 limits assumed)
The experiment in a line: Plasminogen activation by fibrin-bound tPA on fibrin-NETs matrices (plasmin formation). The method, then:
FIGS. 3A-D represent the decrease in tPA-mediated plasmin formation by NETs formed onto fibrin. Neutrophils isolated from human blood were seeded onto fibrin in a 96-wells microtitre plate and activated by 50 nM PMA in HBSS. After binding of tPA to fibrin, plasminogen at varying concentrations was added to the interlaced NETs-fibrin structure. FIG. 3A-B. Plasmin formation from plasminogen (Pg) at 50 nM (A) and 500 nM (B) was monitored by measuring the released of pNA the plasmin-selective chromogenic substrate at 0.75 mM. Plasmin formation on fibrin. ● Plasmin formation on fibrin-NETs. ▪ Plasmin formation on fibrin-NETs treated with the elastase inhibitor MeO-Suc-AAPV-CMK. FIG. 3 C. After plasminogen activation the wells were carefully washed and the amount of fibrin-bound plasmin detected by adding 0.75 mM of the plasmin-selective chromogenic substrate. Grey bars: plasmin bound to the fibrin-NETs surface. […]
Fibrin-NETs matrices were achieved by activation with PMA of neutrophils seeded onto fibrin surfaces prepared as described above. […] Initial velocities of the reaction were calculated using an ad hoc computer program. • 2. […] HNE activity in samples collected in HBSS was measured with the chromogenic substrate MeO-Suc-AAPV-pNA (100 μl per well, 1.5 mM final concentration in HBSS) as indicated above. […]

Regarding Aprotinin, the “effect on conversion of plasminogen into fragments by NETs” value in series [1] is reported as “unable to modify”. Also, the results for the “effect on proteolytic activity of HNE-DNA complexes of NETs” value in series [2] and in series [2] (listed as aprotinin) were “without effect” and “unable to modify”, respectively.
Consider “N-(Methoxysuccinyl)-L-alanyl-L-alanyl-L-prolyl-L-valine chloromethylketone [MeO-Suc-AAPV-CMK]”, for which the “effect on conversion of plasminogen into fragments by NETs” value in series [1] was “abolished the conversion of plasminogen into fragments; also recorded: plasminogen fragments were absent”. The “decrease of plasmin formed and remaining bound to untreated fibrin-NETs lattices compared with lattices in the presence of inhibitor” value in series [3] (FIG. 3C) is listed as “around 50%”. Besides, the “plasmin formation / fibrinolytic activity at the fibrin-NET lattice” value in series [3] (fibrin-NET lattice pre-incubated with inhibitor, tPA bound to fibrin) is “restored to control values”. Moreover, in series [2], the “effect on proteolytic activity of HNE-DNA complexes of NETs” value was “completely blocked; also recorded: completely inhibited”.

Values taken from patent publication US20240288446A1, “METHOD FOR DIAGNOSING FIBRINOLYTIC INSUFFICIENCY RELATED TO NEUTROPHIL EXTRACELLULAR TRAPS” (Hôpitaux Universitaires de Strasbourg, priority 2019, published 2024).
